In patent US7888464B2, “Hepatitis C virus inhibitors” (Bristol-Myers Squibb Company, priority 2006, dated 2011) one finds IC50 and EC50 data, which are given here for eight compounds.

The target of assay [1] is T1, HCV NS3/4A protease complex, BMS strain (genotype 1a) (UniProt P27958, species not given/STRAIN_BMS).
T1 construct: "DNA encoding the recombinant HCV NS3/4A protease complex (amino acids 1027 to 1711) for these strains" (said of H77 and J4L6S, not expressly of BMS); given for the H77/J4L6S constructs only
T1 sequence (P27958 1027-1657, stated change not applied, one chain of several): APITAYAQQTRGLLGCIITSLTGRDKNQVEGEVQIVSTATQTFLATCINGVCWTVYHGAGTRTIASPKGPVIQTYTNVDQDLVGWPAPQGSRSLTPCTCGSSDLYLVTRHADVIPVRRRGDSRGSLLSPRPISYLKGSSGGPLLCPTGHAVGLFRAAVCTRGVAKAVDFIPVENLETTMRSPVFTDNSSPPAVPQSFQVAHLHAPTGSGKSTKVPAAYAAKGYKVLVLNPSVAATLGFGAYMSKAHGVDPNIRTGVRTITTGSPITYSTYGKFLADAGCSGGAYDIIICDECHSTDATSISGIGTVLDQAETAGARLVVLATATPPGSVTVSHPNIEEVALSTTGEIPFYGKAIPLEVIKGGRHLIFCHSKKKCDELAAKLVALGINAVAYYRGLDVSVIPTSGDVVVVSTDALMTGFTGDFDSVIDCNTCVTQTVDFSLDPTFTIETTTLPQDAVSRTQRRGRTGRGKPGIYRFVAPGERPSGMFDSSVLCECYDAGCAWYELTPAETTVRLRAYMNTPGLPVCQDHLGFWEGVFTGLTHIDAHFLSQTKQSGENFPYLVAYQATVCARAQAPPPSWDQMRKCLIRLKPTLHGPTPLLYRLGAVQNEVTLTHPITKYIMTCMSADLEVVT
Nature of the assay: FRET peptide assay to monitor HCV NS3/4A proteolytic activity (BMS strain). It counts as biochemical. The following applies: NS3/4A BMS strain; activity range symbols of Table 2; read-out: HCV Protease (IC50). An excerpt:
HCV NS3 protease complexes, derived from the BMS strain, H77 strain or J4L6S strain, were generated, as described below. These purified recombinant proteins were generated for use in a homogeneous assay (see below) to provide an indication of how effective compounds of the present disclosure would be in inhibiting HCV NS3 proteolytic activity.
Serum from an HCV-infected patient was obtained from Dr. T. Wright, San Francisco Hospital. An engineered full-length cDNA (compliment deoxyribonucleic acid) template of the HCV genome (BMS strain) was constructed from DNA fragments obtained by reverse transcription-PCR(RT-PCR) of serum RNA (ribonucleic acid) and using primers selected on the basis of homology between other genotype la strains. From the determination of the entire genome sequence, a genotype la was assigned to the HCV isolate according to the classification of Simmonds et al. (See P Simmonds, K A Rose, S Graham, S W Chan, F McOmish, B C Dow, E A Follett, P L Yap and H Marsden, J. Clin. Microbiol., 31(6), 1493-1503 (1993)). […] The infectious clones, H77 (1a genotype) and J4L6S (1b genotype) were obtained from R. Purcell (NIH) and the sequences are published in Genbank (AAB67036, see Yanagi, M., Purcell, R. H., Emerson, S. U. and Bukh, J. Proc. Natl. Acad. Sci. U.S.A. 94(16), 8738-8743 (1997); AF054247, see Yanagi, M., St Claire, M., Shapiro, M., Emerson, S. U., Purcell, R. H. and Bukh, J, Virology 244 (1), 161-172. (1998)).
The H77 and J4L6S strains were used for production of recombinant NS3/4A protease complexes. DNA encoding the recombinant HCV NS3/4A protease complex (amino acids 1027 to 1711) for these strains were manipulated as described by P. Gallinari et al. (see Gallinari P, Paolini C, Brennan D, Nardi C, Steinkuhler C, De Francesco R. Biochemistry. 38(17):5620-32, (1999)). Briefly, a three-lysine solubilizing tail was added at the 3′-end of the NS4A coding region. The cysteine in the P1 position of the NS4A-NS4B cleavage site (amino acid 1711) was changed to a glycine to avoid the proteolytic cleavage of the lysine tag. Furthermore, a cysteine to serine mutation was introduced by PCR at amino acid position 1454 to prevent the autolytic cleavage in the NS3 helicase domain. The variant DNA fragment was cloned in the pET21b bacterial expression vector (Novagen) and the NS3/4A complex was expressed in Escherichia. coli strain BL21 (DE3) (Invitrogen) following the protocol described by P. Gallinari et al. (see Gallinari P, Brennan D, Nardi C, Brunetti M, Tomei L, Steinkuhler C, De Francesco R., J. Virol. 72(8):6758-69 (1998)) with modifications. Briefly, the NS3/4A protease complex expression was induced with 0.5 millimolar (mM) Isopropyl β-D-1-thiogalactopyranoside (IPTG) for 22 hours (h) at 20° C. A typical fermentation (1 Liter (L)) yielded approximately 10 grams (g) of wet cell paste. The cells were resuspended in lysis buffer (10 mL/g) consisting of 25 mM N-(2-Hydroxyethyl)piperazine-N′-(2-Ethane Sulfonic acid) (HEPES), pH 7.5, 20% glycerol, 500 mM Sodium Chloride (NaCl), 0.5% Triton X-100, 1 microgram/milliliter (“μg/mL”) lysozyme, 5 mM Magnesium Chloride (MgCl2), 1 μg/ml DnaseI, 5 mM β-Mercaptoethanol (βME), Protease inhibitor-Ethylenediamine Tetraacetic acid (EDTA) free (Roche), homogenized and incubated for 20 minutes (min) at 4° C. The homogenate was sonicated and clarified by ultra-centrifugation at 235000 g for 1 hour (h) at 4° C. Imidazole was added to the supernatant to a final concentration of 15 mM and the pH adjusted to 8.0. The crude protein extract was loaded on a Nickel-Nitrilotriacetic acid (Ni-NTA) column pre-equilibrated with buffer B (25 mM HEPES, pH 8.0, 20% glycerol, 500 mM NaCl, 0.5% Triton X-100, 15 mM imidazole, 5 mM βME). The sample was loaded at a flow rate of 1 mL/min. The column was washed with 15 column volumes of buffer C (same as buffer B except with 0.2% Triton X-100). The protein was eluted with 5 column volumes of buffer D (same as buffer C except with 200 mM Imidazole). […]

Assay [2] deals with HCV replicon (strain 1b) in HUH-7 cells. Nature of the assay: HCV replicon FRET assay. It counts as cell-based. The following applies: Hepatitis C virus, Huh-7, read-out: HCV Pro Replicon (EC50). An excerpt:
An HCV replicon whole cell system was established as described by Lohmann V, Korner F, Koch J, Herian U, Theilmann L, Bartenschlager R., Science 285(5424): 110-3 (1999). This system enabled us to evaluate the effects of our HCV Protease compounds on HCV RNA replication. Briefly, using the HCV strain 1b sequence described in the Lohmann paper (Assession number: AJ238799), an HCV cDNA was synthesized by Operon Technologies, Inc. (Alameda, Calif.), and the full-length replicon was then assembled in plasmid pGem9zf(+) (Promega, Madison, Wis.) using standard molecular biology techniques. The replicon consists of (i) the HCV 5′ UTR fused to the first 12 amino acids of the capsid protein, (ii) the neomycin phosphotransferase gene (neo), (iii) the IRES from encephalomyocarditis virus (EMCV), and (iv) HCV NS3 to NS5B genes and the HCV 3′ UTR. Plasmid DNAs were linearized with ScaI and RNA transcripts were synthesized in vitro using the T7 MegaScript transcription kit (Ambion, Austin, Tex.) according to manufacturer's directions. In vitro transcripts of the cDNA were transfected into the human hepatoma cell line, HUH-7. […] Resulting cell lines were characterized for positive and negative strand RNA production and protein production over time.
The HCV replicon FRET assay was developed to monitor the inhibitory effects of compounds described in the disclosure on HCV viral replication. HUH-7 cells, constitutively expressing the HCV replicon, were grown in Dulbecco's Modified Eagle Media (DMEM) (Gibco-BRL) containing 10% Fetal calf serum (FCS) (Sigma) and 1 mg/ml G418 (Gibco-BRL). Cells were seeded the night before (1.5×10^4 cells/well) in 96-well tissue-culture sterile plates. Compound and no compound controls were prepared in DMEM containing 4% FCS, 1:100 Penicillin/Streptomysin (Gibco-BRL), 1:100 L-glutamine and 5% DMSO in the dilution plate (0.5% DMSO final concentration in the assay). Compound/DMSO mixes were added to the cells and incubated for 4 days at 37° C. After 4 days, cells were first assessed for cytotoxicity using alamar Blue (Trek Diagnotstic Systems) for a CC50 reading. The toxicity of compound (CC50) was determined by adding 1/10th volume of alamar Blue to the media incubating the cells. After 4 h, the fluorescence signal from each well was read, with an excitation wavelength at 530 nm and an emission wavelength of 580 nm, using the Cytofluor Series 4000 (Perspective Biosystems). Plates were then rinsed thoroughly with Phosphate-Buffered Saline (PBS) (3 times 150 μl). The cells were lysed with 25 μl of a lysis assay reagent containing an HCV protease substrate (5× cell Luciferase cell culture lysis reagent (Promega #E153A) diluted to 1× with distilled water, NaCl added to 150 mM final, the FRET peptide substrate (as described for the enzyme assay above) diluted to 10 μM final from a 2 mM stock in 100% DMSO. The plate was then placed into the Cytofluor 4000 instrument which had been set to 340 nm excitation/490 nm emission, automatic mode for 21 cycles and the plate read in a kinetic mode. EC50 determinations were carried out as described for the IC50 determinations.
A general note: Replicon systems follow genome replication, usually without infectious particles.

The term IC50 denotes the concentration at which inhibition is half-maximal. Usually EC50 stands for the concentration giving half of the maximal effect. For the compound `C=C[C@@H]1C[C@]1(NC(=O)[C@@H]1C[C@@](OC)(c2ccc(-c3ccccc3)cc2)CN1C(=O)[C@H](Nc1ccc(F)c(F)c1)C(C)(C)C)C(=O)NS(=O)(=O)C1CC1` [Cmpd 210, (2S,4R)-4-Biphenyl-4-yl-1-[(R)-2-(3,4-difluoro-phenylamino)-3,3-dimethyl-butyryl]-4-methoxy-pyrrolidine-2-carboxylic acid ((1R,2S)-1-cyclopropanesulfonylaminocarbonyl-2-vinyl-cyclopropyl)-amide], the IC50 in assay [1] is more than 500 nM. Also, the EC50 in assay [2] is more than 500 nM.

Turning to `C=C[C@@H]1C[C@]1(NC(=O)[C@@H]1C[C@@](OC)(c2ccc(-c3ccccc3)cc2)CN1C(=O)[C@H](CC(C)C)NC(=O)OC(C)(C)C)C(=O)NS(=O)(=O)C1CC1` [Cmpd 203, {(S)-1-[(2S,4R)-4-Biphenyl-4-yl-2-((S)-(1R,2S)-1-cyclopropanesulfonylaminocarbonyl-2-vinyl-cyclopropylcarbamoyl)-4-methoxy-pyrrolidine-1-carbonyl]-3-methyl-butyl}-carbamic acid tert-butyl ester], in assay [1], the IC50 was in the range of 1 to 50 nM. Further, in assay [2], the EC50 was in the range of 50 to 500 nM.

As for `C=C[C@@H]1C[C@]1(NC(=O)[C@@H]1C[C@@](OC)(c2ccc(-c3ccccc3)cc2)CN1C(=O)[C@@H](NC(=O)OC(C)(C)C)C(C)CC)C(=O)NS(=O)(=O)C1CC1` (stereo partly drawn) [Cmpd 202, {(S)-1-[(2S,4R)-4-Biphenyl-4-yl-2-((S)-(1R,2S)-1-cyclopropanesulfonylaminocarbonyl-2-vinyl-cyclopropylcarbamoyl)-4-methoxy-pyrrolidine-1-carbonyl]-2-methyl-butyl}-carbamic acid tert-butyl ester], the IC50 in assay [1] was 1 to 50 nM. Further, in assay [2], the EC50 lay in the range of 50 to 500 nM.

For the compound `C=C[C@@H]1C[C@]1(NC(=O)[C@@H]1C[C@@](OC)(c2ccc(-c3ccccc3)cc2)CN1C(=O)[C@@H](NC(=O)OC(C)(C)C)C(C)C)C(=O)NS(=O)(=O)C1CC1` [Cmpd 201, {(S)-1-[(2S,4R)-4-Biphenyl-4-yl-2-((S)-(1R,2S)-1-cyclopropanesulfonylaminocarbonyl-2-vinyl-cyclopropylcarbamoyl)-4-methoxy-pyrrolidine-1-carbonyl]-2-methyl-propyl}-carbamic acid tert-butyl ester], the IC50 in assay [1] was 1 to 50 nM. In addition, the EC50 in assay [2] is 50 to 500 nM.

As for `CC[C@@H]1C[C@]1(NC(=O)[C@@H]1C[C@@](OC)(c2ccc(-c3ccccc3)cc2)CN1C(=O)[C@@H](NC(=O)OC(C)(C)C)C(C)(C)C)C(=O)NS(=O)(=O)C1CC1` [Cmpd 110], the IC50 in assay [1] fell in the range of 1 to 50 nM. Besides, the EC50 in assay [2] lay within 50 to 500 nM.

On to `C=C[C@@H]1C[C@]1(NC(=O)[C@@H]1C[C@@](OC)(c2ccc(-c3ccccc3)cc2)CN1C(=O)[C@@H](NC(=O)NC12CC3CC(CC(C3)C1)C2)C(C)(C)C)C(=O)NS(=O)(=O)C1CC1` [Cmpd 205, (2S,4R)-1-[(S)-2-(3-Adamantan-1-yl-ureido)-3,3-dimethyl-butyryl]-4-biphenyl-4-yl-4-methoxy-pyrrolidine-2-carboxylic acid ((1R,2S)-1-cyclopropanesulfonylaminocarbonyl-2-vinyl-cyclopropyl)-amide], for which the IC50 in assay [1] was in the range of 1 to 50 nM. Further, in assay [2], the EC50 lay in the range of 1 to 50 nM.

`C=CCCCCC[C@H](NC(=O)OC(C)(C)C)C(=O)N1C[C@](OC)(c2ccc(-c3ccccc3)cc2)C[C@H]1C(=O)N[C@]1(C(=O)NS(=O)(=O)C2CC2)C[C@H]1C=C` [Cmpd 107]: the IC50 in assay [1] fell in the range of 50 to 500 nM. Further, the EC50 in assay [2] was more than 500 nM.

As for `C=C[C@@H]1C[C@]1(NC(=O)[C@@H]1C[C@@](OC)(c2ccc(-c3ccccc3)cc2)CN1C(=O)[C@@H](Nc1cccc(OC)c1)C(C)(C)C)C(=O)NS(=O)(=O)C1CC1` [Cmpd 207, (2S,4R)-4-Biphenyl-4-yl-4-methoxy-1-[(S)-2-(3-methoxy-phenylamino)-3,3-dimethyl-butyryl]-pyrrolidine-2-carboxylic acid ((1R,2S)-1-cyclopropanesulfonylaminocarbonyl-2-vinyl-cyclopropyl)-amide], the 50% inhibitory concentration (IC50) in assay [1] lay in the range of 1 to 50 nM. Besides, the EC50 in assay [2] fell in the range of 1 to 50 nM.
